Experimental findings from patent publication US20040167330A1, “Novel chelating agents and conjugates thereof, their synthesis and use as diagnois and therapeutic agents” (priority 2004, published 2004) are described below.

Format in all cases: physicochemical
Data set [1] is described as follows: Relaxation measurements of gadolinium(III) complex solutions. The conditions noted are these: at 10 MHz. On the procedure: Solution was stirred for 1 h at room temperature and pH was set to approx. pH 7 by careful addition of solid KOH. Thus prepared solution as well as other solutions of different concentration which were prepared by a similar approach (all containing known amount of water and gadolinium(III)) were used for relaxation measurements. The solutions gave relaxivity 7.86 mmol^−1 s^−1 (at 10 MHz).
Solution of gadolinium(III) complex of compound 1 for relaxation measurements were prepared similarly to Example 51. The solutions gave relaxivity 7.54 mmol-1 s^−1 (at 10 MHz). Exchange half-life of coordinated water molecule 70 ns was determined (from temperature dependence of ^17O NMR parameters).

Data set [2] can be described thus: Formation of ^90Y-yttrium complex, radiochemical yield by TLC/HPLC. To be noted: for radiochemical yield: 25° C. On the procedure: Purified DO3A-P^BnNH2 was dissolved in demineralised water at a concentration of 9×10^−5 mol/l. 0.1 ml of this solution were transferred into a small reaction vial (PE). 0.1 ml ^90Y-yttrium chloride (YCl3) in 0.1 M HCl and 0.1 ml ammonium acetate buffer, pH 5.7, were added. The reaction solutions were mixed well. pH values were measured continuously while preparing the solution. 24 identical solutions were prepared accordingly and stored at 25° C. and 37° C. respectively.
Samples were taken after 15 min, 30 min, 45 min, 60 min, 90 min and 120 min and analyzed by thin layer chromatography using silica gel (POLYGRAM SIL G/UV254) or, preferably, paper (Whatman No. 1) as solid phase. TLC was run using either solvent I: 0.1 N ammonium acetate solution or solvent II: 3% sodium chloride solution as developing solution. In parallel, samples (20 μl) were analyzed by gel filtration using HPLC. The HPLC-system comprised a gamma detector (Berthold LB 506) and a UV/VIS spectrometer (Waters 486) installed in two flow through cells, respectively.
Temperature- and time-dependent studies have shown a very short reaction time for the complex formation of a ^90Y-Yttrium-DO3A-complex.
Furthermore, the effect of pH and ligand concentration on radiochemical yield was evaluated. Table 5 summarizes the results relating to the variation of pH between pH 2.0 and pH 8.9 while maintaining a constant ratio of DO3A-P^BnNH2 and Y of 3:1 and a reaction time of 60 min at 25° C. Accordingly, best labeling results are achieved at pH values of 4.9-8.0. Table 6 summarizes the results relating to the variation of the ligand concentration DO3A-P^BnNH2: Y between 1:1 up to 7:1 while maintaining a constant pH range (pH 5.2) and reaction time of 60 min at 25° C.

Assay in data set [3]: as above
To be noted: reaction time 0 min; 25° C.; [Y] = 1,2 · 10^−3 mol/l; ratio of ligand: Y = 1:1; pH = 5.5.

“Gadolinium(III) Complex of DO3A-P [gadolinium(III) complex of compound 1]”: in data set [1] (gadolinium(III) complex in solution), the relaxivity amounted to 7.54 mmol⁻¹ s⁻¹.

`Nc1ccc(CP(=O)(O)CN2CCN(CC(=O)O)CCN(CC(=O)O)CCN(CC(=O)O)CC2)cc1` [Compound 11]: the “pH values at which best labeling results are achieved” value in data set [2] (^90Y, ratio of DO3A-P^BnNH2 and Y of 3:1, reaction time of 60 min at 25° C., pH varied 2.0 to 8.9) is recorded as 4.9-8.0. The radiochemical yield in data set [2] (ratio of ligand:Y 1:1, [Y] = 1.2 · 10^−3 mol/l, pH = 5.2, reaction time 60 min) is recorded as 94%; in data set [2] (reaction time 15 min, [Y] = 1,2 · 10^−3 mol/l, ratio of ligand: Y = 1:1, pH = 5.5), 97%; in data set [3], 88%. This compound also had a relaxivity in data set [1] (gadolinium(III) complex prepared in solution from GdCl3.6H2O, approx. pH 7) of 7.86 mmol⁻¹ s⁻¹.
